Laboratory results as given in ChEMBL document CHEMBL3046894, “Synthesis and Herbicidal Activity of Pyrimidinyl Salicylic and Thiosalicylic Acids” (J Pestic Sci, 1996).
Calls of active or inactive are those of the source. The rule behind the calls is not given here.

Key:
[1] = test system: Abutilon theophrasti; experiment: Post-emergence herbicidal activity against Abutilon theophrasti (velvetleaf) assessed as mortality at 1.6 g a.i/10 a applied 11 days after germination as foliar spray; type: functional; details: 264 h
[2] = test system: Gossypium hirsutum; experiment: Post-emergence phytotoxicity against Gossypium hirsutum (cotton) assessed as mortality at 1.6 g a.i/10 a applied 11 days after germination as foliar spray; type: organism-based; details: in vivo, other, 264 h
[3] = test system: Gossypium hirsutum; experiment: Post-emergence phytotoxicity against Gossypium hirsutum (cotton) assessed as mortality at 6.3 g a.i/10 a applied 11 days after germination as foliar spray; type: organism-based; details: in vivo, other, 264 h
[4] = test system: Glycine max; experiment: (§1) Post-emergence phytotoxicity against Glycine max (soybean) assessed as mortality at 1.6 g a.i/10 a applied 11 days after germination as foliar spray; type: organism-based; details: in vivo, other, 264 h
[5] = test system: Zea mays; experiment: (§2) Post-emergence phytotoxicity against Zea mays (maize) assessed as mortality at 1.6 g a.i/10 a applied 11 days after germination as foliar spray; type: organism-based; details: in vivo, other, 264 h
[6] = test system: Zea mays; experiment: Post-emergence phytotoxicity against Zea mays (maize) assessed as mortality at 6.3 g a.i/10 a applied 11 days after germination as foliar spray; type: organism-based; details: in vivo, other, 264 h
[7] = test system: Xanthium strumarium; experiment: Post-emergence herbicidal activity against Xanthium strumarium (cocklebur) assessed as mortality at 1.6 g a.i/10 a applied 11 days after germination as foliar spray; type: functional; details: 264 h
[8] = test system: Cyperus iria; experiment: Pre-emergence herbicidal activity against Cyperus iria assessed as growth inhibition at 25 g a.i/10 a; type: functional, organism-based
[9] = test system: Chenopodium album; experiment: Pre-emergence herbicidal activity against Chenopodium album assessed as growth inhibition at 25 g a.i/10 a; type: functional, organism-based
[10] = test system: Amaranthus retroflexus; experiment: Pre-emergence herbicidal activity against Amaranthus retroflexus assessed as growth inhibition at 25 g a.i/10 a; type: functional, organism-based
[11] = test system: Persicaria nodosa; experiment: Pre-emergence herbicidal activity against Persicaria nodosa assessed as growth inhibition at 25 g a.i/10 a; type: functional, organism-based
[12] = test system: Digitaria sanguinalis; experiment: Pre-emergence herbicidal activity against Digitaria sanguinalis (hairy crabgrass) assessed as growth inhibition at 25 g a.i/10 a; type: functional, organism-based
[13] = test system: Echinochloa crus-galli; experiment: Pre-emergence herbicidal activity against Echinochloa crus-galli (barnyard grass) assessed as growth inhibition at 25 g a.i/10 a; type: functional, organism-based
[14] = test system: Cyperus iria; experiment: Post-emergence herbicidal activity against Cyperus iria assessed as growth inhibition at 25 g a.i/10 a applied 11 days after germination as foliar spray; type: functional, organism-based
[15] = test system: Chenopodium album; experiment: Post-emergence herbicidal activity against Chenopodium album assessed as growth inhibition at 25 g a.i/10 a applied 11 days after germination as foliar spray; type: functional, organism-based
[16] = test system: Amaranthus retroflexus; experiment: Post-emergence herbicidal activity against Amaranthus retroflexus assessed as growth inhibition at 25 g a.i/10 a applied 11 days after germination as foliar spray; type: functional, organism-based
[17] = test system: Persicaria nodosa; experiment: Post-emergence herbicidal activity against Persicaria nodosa assessed as growth inhibition at 25 g a.i/10 a applied 11 days after germination as foliar spray; type: functional, organism-based
[18] = test system: Digitaria sanguinalis; experiment: Post-emergence herbicidal activity against Digitaria sanguinalis (hairy crabgrass) assessed as growth inhibition at 25 g a.i/10 a applied 11 days after germination as foliar spray; type: functional, organism-based
[19] = test system: Echinochloa crus-galli; experiment: Post-emergence herbicidal activity against Echinochloa crus-galli (barnyard grass) assessed as growth inhibition at 25 g a.i/10 a applied 11 days after germination as foliar spray; type: functional, organism-based
[20] = test system: Echinochloa crus-galli; experiment: Pre-emergence herbicidal activity against Echinochloa crus-galli (barnyard grass) assessed as mortality at 6.3 g a.i/10 a; type: functional; details: Echinochloa crus-galli, pre-emergence
[21] = test system: Abutilon theophrasti; experiment: Post-emergence herbicidal activity against Abutilon theophrasti (velvetleaf) assessed as mortality at 6.3 g a.i/10 a applied 11 days after germination as foliar spray; type: functional; details: 264 h
[22] = test system: Gossypium hirsutum; experiment: (§3) Pre-emergence phytotoxicity against Gossypium hirsutum (cotton) assessed as mortality at 6.3 g a.i/10 a; type: organism-based; details: in vivo, other
[23] = test system: Gossypium hirsutum; experiment: Pre-emergence phytotoxicity against Gossypium hirsutum (cotton) assessed as mortality at 1.6 g a.i/10 a; type: organism-based; details: in vivo, other
[24] = test system: Glycine max; experiment: Pre-emergence phytotoxicity against Glycine max (soybean) assessed as mortality at 1.6 g a.i/10 a; type: organism-based; details: in vivo, other
[25] = (§4) Pre-emergence phytotoxicity against Glycine max (soybean) assessed as mortality at 6.3 g a.i/10 a; type: organism-based; details: in vivo, 6.3 g a.i/10 a, read-out: mortality
[26] = (§5) Pre-emergence phytotoxicity against Zea mays (maize) assessed as mortality at 1.6 g a.i/10 a; type: organism-based; details: in vivo, 1.6 g a.i/10 a, read-out: mortality
[27] = test system: Echinochloa crus-galli; experiment: Post-emergence herbicidal activity against Echinochloa crus-galli (barnyard grass) assessed as mortality at 6.3 g a.i/10 a applied 11 days after germination as foliar spray; type: functional; details: 264 h
[28] = test system: Ipomoea lacunosa; experiment: Pre-emergence herbicidal activity against Ipomoea lacunosa assessed as mortality at 1.6 g a.i/10 a; type: functional; details: for mortality at 16 g/ha: Ipomoea lacunosa, pre-emergence
[29] = test system: Abutilon theophrasti; experiment: Pre-emergence herbicidal activity against Abutilon theophrasti (velvetleaf) assessed as mortality at 6.3 g a.i/10 a; type: functional; details: Abutilon theophrasti, pre-emergence
[30] = test system: Glycine max; experiment: as §4; type: organism-based; details: in vivo, other
[31] = test system: Zea mays; experiment: as §5; type: organism-based; details: in vivo, other
[32] = test system: Zea mays; experiment: Pre-emergence phytotoxicity against Zea mays (maize) assessed as mortality at 6.3 g a.i/10 a; type: organism-based; details: in vivo, other
[33] = as §1; type: organism-based; details: in vivo, 1.6 g a.i/10 a
[34] = test system: Xanthium strumarium; experiment: Pre-emergence herbicidal activity against Xanthium strumarium (cocklebur) assessed as mortality at 1.6 g a.i/10 a; type: functional; details: for mortality at 16 g/ha: Xanthium strumarium, pre-emergence
[35] = test system: Ipomoea lacunosa; experiment: Post-emergence herbicidal activity against Ipomoea lacunosa assessed as mortality at 1.6 g a.i/10 a applied 11 days after germination as foliar spray; type: functional; details: 264 h
[36] = as §2; type: organism-based; details: in vivo, 1.6 g a.i/10 a
[37] = test system: Ipomoea lacunosa; experiment: Pre-emergence herbicidal activity against Ipomoea lacunosa assessed as mortality at 6.3 g a.i/10 a; type: functional; details: Ipomoea lacunosa, pre-emergence
[38] = as §3; type: organism-based; details: in vivo, 6.3 g a.i/10 a, read-out: Activity

| Structure (SMILES) | mortality at 16 g/ha [1] [%] | Activity [2] | Activity [3] | Activity [5] | growth inhibition (GI) [8] | growth inhibition (GI) [9] | growth inhibition (GI) [10] | growth inhibition (GI) [11] | growth inhibition (GI) [12] | growth inhibition (GI) [13] | growth inhibition (GI) [14] | growth inhibition (GI) [15] | growth inhibition (GI) [16] | growth inhibition (GI) [17] | growth inhibition (GI) [18] | growth inhibition (GI) [19] | mortality at 63 g/ha [21] [%] | Activity [22] | Activity [24] | mortality at 16 g/ha [28] [%] | also measured |
| --- | --- | --- | --- | --- | --- | --- | --- | --- | --- | --- | --- | --- | --- | --- | --- | --- | --- | --- | --- | --- | --- |
| COc1cc(OC)nc(Oc2cccc(N)c2C(=O)O)n1 | < 5 | Non-toxic | Toxic | Toxic | Active | Active | Active | inactive | inactive | inactive | Active | Active | Active | Active | Active | Active | – | – | – | – | Activity [4]: Toxic; Activity [6]: Toxic; mortality at 16 g/ha [7]: < 5% |
| COc1cc(OC)nc(Oc2cccc(F)c2C(=O)O)n1 | > 90 | Toxic | Toxic | Toxic | Active | Active | Active | Active | Active | Active | Active | Active | Active | Active | Active | Active | > 90 | Toxic | Toxic | < 5 | mortality at 63 g/ha [20]: > 90%; Activity [23]: Non-toxic; mortality [25]: > 90%; mortality [26]: > 90%; Activity [4]: Toxic; mortality at 63 g/ha [27]: > 90%; mortality at 63 g/ha [29]: > 90% |
| COc1cc(OC)nc(Oc2cccc(OC(F)F)c2C(=O)O)n1 | > 90 | Toxic | Toxic | Toxic | Active | Active | Active | Active | Active | Active | Active | Active | Active | Active | Active | Active | > 90 | Non-toxic | Toxic | < 5 | Activity [23]: Non-toxic; Activity [30]: Toxic; Activity [31]: Non-toxic; Activity [32]: Toxic; mortality at 264 h [33]: > 90%; Activity [6]: Toxic; mortality at 16 g/ha [34]: < 5% |
| CCc1cccc(Oc2nc(OC)cc(OC)n2)c1C(=O)O | > 90 | Toxic | Toxic | – | Active | Active | Active | Active | Active | Active | Active | Active | Active | Active | Active | Active | > 90 | Non-toxic | Non-toxic | < 5 | mortality at 63 g/ha [20]: > 90%; mortality at 16 g/ha [35]: < 5%; Activity [30]: Toxic; Activity [31]: Toxic; mortality at 264 h [33]: > 90%; mortality at 264 h [36]: > 90%; mortality at 16 g/ha [7]: < 5%; mortality at 63 g/ha [27]: > 90%; mortality at 16 g/ha [34]: < 5% |
| CCOc1cccc(Oc2nc(OC)cc(OC)n2)c1C(=O)O | – | Non-toxic | Toxic | – | Active | Active | Active | Active | Active | Active | Active | Active | Active | Active | Active | Active | > 90 | Non-toxic | Non-toxic | < 5 | Activity [30]: Toxic; Activity [31]: Toxic; mortality at 264 h [33]: > 90%; mortality at 264 h [36]: > 90%; mortality at 16 g/ha [34]: < 5%; mortality at 63 g/ha [37]: < 5% |
| COc1cc(OC)nc(Sc2cccc(F)c2C(=O)O)n1 | – | Non-toxic | Toxic | Toxic | – | – | – | – | – | – | – | – | – | – | – | – | – | – | Non-toxic | – | mortality [38]: < 50%; Activity [23]: < 50%; Activity [30]: Non-toxic; Activity [31]: Toxic; Activity [32]: Toxic; mortality at 264 h [33]: > 90%; Activity [6]: Toxic; Activity [34]: <50%; Activity [28]: <50% |
